# Test results from patent publication US7045532B2 (Millennium Pharmaceuticals, Inc., priority 1999, dated 2006).
# Like-named read-outs stand apart in the source and are kept apart here.
# Assays:
# [1] = biological target: ACE-2 (Rattus norvegicus, UniProt Q5EGZ1); assay: ACE-2 Competitive Substrate Assay, rat ACE-2; type: biochemical; details: Ki class, compounds tested in 5% DMSO
# [2] = biological target: T1, ACE (Sigma, A2580) (Sus scrofa, UniProt F1RRW5); assay: ACE enzymatic activity assay; type: biochemical, porcine; details: Ki class; compounds tested in 5% DMSO, 12 concentrations
# T1 construct: ACE from porcine kidney; purchased Sigma A2580; host or cells: porcine kidney
# T1 sequence (F1RRW5 34-1309): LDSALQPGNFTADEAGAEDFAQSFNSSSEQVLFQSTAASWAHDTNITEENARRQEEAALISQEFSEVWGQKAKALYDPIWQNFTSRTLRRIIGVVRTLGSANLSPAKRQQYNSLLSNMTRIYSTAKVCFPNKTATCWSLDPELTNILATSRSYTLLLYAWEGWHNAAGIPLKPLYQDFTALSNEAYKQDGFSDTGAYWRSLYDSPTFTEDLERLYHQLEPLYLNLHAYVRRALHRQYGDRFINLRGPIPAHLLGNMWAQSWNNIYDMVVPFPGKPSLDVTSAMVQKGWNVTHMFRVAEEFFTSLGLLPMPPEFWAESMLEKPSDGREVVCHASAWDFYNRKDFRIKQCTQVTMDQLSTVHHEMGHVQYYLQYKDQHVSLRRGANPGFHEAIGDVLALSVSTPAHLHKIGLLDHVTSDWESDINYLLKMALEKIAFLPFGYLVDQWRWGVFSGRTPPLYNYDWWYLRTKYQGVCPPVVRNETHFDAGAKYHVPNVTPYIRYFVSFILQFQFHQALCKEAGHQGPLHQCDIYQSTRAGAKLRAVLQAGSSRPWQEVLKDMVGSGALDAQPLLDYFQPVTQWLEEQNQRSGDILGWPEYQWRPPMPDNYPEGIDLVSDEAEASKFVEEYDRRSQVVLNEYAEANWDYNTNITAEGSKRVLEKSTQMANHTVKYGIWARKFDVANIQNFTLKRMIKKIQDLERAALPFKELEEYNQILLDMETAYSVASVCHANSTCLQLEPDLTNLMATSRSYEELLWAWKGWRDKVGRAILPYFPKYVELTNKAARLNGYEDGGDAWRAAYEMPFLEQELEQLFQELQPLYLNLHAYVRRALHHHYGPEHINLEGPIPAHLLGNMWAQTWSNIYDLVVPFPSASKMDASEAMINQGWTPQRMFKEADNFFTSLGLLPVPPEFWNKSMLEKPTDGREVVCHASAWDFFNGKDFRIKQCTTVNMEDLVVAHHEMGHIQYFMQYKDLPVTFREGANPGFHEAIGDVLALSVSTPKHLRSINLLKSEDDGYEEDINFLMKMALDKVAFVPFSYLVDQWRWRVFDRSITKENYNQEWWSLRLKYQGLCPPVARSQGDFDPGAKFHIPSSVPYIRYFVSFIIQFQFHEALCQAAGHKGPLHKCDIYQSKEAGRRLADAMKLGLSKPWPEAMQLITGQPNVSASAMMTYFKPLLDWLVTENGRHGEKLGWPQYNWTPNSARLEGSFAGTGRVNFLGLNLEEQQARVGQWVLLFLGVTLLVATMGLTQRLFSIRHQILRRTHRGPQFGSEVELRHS
# Summary of the method: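 ACE (1 nM final) in 50 mM HEPES, 300 mM NaCl, 0.01% Brij-35, pH 7.5, with compound in 5% DMSO at 12 concentrations, 25 °C. Substrate cleavage run ~30 min, stopped with EDTA; fluorescence read at excitation 320 nm, emission 405 nm.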
# [3] = biological target: T2, Carboxypeptidase A (Bos taurus, UniProt P00730); assay: Carboxypeptidase A activity assay; type: biochemical; details: Ki class; compounds tested in 5% DMSO, 12 concentrations
# T2 sequence (P00730 111-419): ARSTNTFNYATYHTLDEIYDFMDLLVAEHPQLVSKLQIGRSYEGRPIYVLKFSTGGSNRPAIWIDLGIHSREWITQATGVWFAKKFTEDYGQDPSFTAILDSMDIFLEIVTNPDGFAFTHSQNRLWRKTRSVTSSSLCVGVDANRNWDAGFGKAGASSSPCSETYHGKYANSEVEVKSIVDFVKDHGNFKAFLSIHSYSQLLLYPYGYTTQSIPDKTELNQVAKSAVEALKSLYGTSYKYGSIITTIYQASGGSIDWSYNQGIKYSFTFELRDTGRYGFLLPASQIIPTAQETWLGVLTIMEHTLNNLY
# Summary of the method: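 Bovine carboxypeptidase A activity followed at 328 nm in 5% DMSO, reaction stopped with EDTA. Activity measured at 12 compound concentrations. Ki derived from apparent Ki as Ki=Kiapp/(1+[S]/Km).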
# [4] = biological target: T3, ACE-2 (Homo sapiens, UniProt Q9BYF1); assay: ACE-2 Competitive Substrate Assay (ACS Assay); type: biochemical
# T3 construct: a stop codon inserted after the serine immediately preceding the transmembrane domain; made in house; host or cells: CHO K1 cells (transient transfection, purified from conditioned medium)
# [5] = Ki class, compounds tested in 5% DMSO, 12 compound concentrations, Ki=Kiapp/(1+[S]/Km), read-out: Human ACE-2 Activity
# [6] = Table 3, very good ACE-2 inhibiting compounds, species not given, read-out: ACE-2 Activity, Ki
# [7] = Ki class, compounds tested in 5% DMSO, 12 concentrations, read-out: Human ACE-2 Activity
# T3 sequence (Q9BYF1 18-740 limits assumed): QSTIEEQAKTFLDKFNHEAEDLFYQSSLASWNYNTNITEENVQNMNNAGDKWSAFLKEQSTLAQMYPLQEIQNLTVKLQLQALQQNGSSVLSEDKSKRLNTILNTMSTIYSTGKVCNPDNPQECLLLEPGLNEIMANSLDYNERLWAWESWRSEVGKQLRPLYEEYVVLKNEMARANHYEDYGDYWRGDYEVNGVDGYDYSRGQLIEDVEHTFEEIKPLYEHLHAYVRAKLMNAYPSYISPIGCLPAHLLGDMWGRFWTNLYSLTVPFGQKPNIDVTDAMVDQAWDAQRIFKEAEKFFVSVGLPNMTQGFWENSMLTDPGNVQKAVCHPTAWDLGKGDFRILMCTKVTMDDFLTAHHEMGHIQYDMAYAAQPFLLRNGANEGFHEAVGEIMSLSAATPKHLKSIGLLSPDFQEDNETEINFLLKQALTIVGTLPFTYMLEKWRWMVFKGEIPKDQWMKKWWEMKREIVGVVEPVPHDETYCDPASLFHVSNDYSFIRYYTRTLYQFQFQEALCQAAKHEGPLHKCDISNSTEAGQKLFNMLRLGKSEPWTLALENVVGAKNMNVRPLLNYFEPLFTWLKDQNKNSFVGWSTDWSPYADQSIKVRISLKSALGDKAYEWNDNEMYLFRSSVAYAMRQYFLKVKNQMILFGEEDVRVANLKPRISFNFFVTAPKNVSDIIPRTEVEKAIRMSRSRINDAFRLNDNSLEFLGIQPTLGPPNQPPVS
# ACE-2 (Rattus norvegicus, UniProt Q5EGZ1), sequence (Q5EGZ1 18-805): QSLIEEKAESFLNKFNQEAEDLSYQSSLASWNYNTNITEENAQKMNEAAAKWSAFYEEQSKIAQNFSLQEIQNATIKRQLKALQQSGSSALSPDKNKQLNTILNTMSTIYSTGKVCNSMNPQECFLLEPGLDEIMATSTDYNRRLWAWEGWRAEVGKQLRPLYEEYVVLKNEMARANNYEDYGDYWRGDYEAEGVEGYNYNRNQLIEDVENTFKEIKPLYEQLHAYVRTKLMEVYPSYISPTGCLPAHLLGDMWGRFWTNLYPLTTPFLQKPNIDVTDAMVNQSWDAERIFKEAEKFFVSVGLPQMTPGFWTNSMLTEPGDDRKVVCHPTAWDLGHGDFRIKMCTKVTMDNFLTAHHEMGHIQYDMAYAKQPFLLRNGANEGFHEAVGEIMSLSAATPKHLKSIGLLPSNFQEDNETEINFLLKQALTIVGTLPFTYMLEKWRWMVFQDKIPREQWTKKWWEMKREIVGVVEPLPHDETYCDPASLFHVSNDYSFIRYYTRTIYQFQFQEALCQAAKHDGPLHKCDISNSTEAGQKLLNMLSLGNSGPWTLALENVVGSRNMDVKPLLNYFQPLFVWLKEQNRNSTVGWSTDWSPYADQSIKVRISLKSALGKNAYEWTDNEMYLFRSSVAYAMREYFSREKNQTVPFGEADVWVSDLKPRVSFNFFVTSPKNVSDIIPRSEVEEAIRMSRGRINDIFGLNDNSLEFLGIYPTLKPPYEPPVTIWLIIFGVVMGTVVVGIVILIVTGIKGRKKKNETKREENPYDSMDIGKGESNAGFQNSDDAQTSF
SMILES,Ki ([1]; 12 concentrations) [nM],Ki [2] [nM],Ki [3] [nM],"Ki [4, 5] [nM]","Ki [4, 6] [nM]",Ki ([1]; 12 compound concentrations) [nM],"Ki [4, 7] [nM]"
"O=C(O)C(Cc1ccc(O)cc1)N[C@@H](Cc1c[nH]cn1)C(=O)O (single isomer, unassigned) [DO, 2-[1-Carboxy-2-(4-hydroxy-phenyl)-ethylamino]-3-(1H-imidazol-4-yl)-propionicacid]",100 to 500,10000 to 50000,> 50000,,,,
"CC(C)CC(N[C@@H](Cc1cncn1Cc1cc(Cl)ccc1Cl)C(=O)O)C(=O)O (single isomer, unassigned) [JB, 2-[1-Carboxy-2-[3-(2,5-dichloro-benzyl)-3H-imidazol-4-yl]-ethylamino]4-methyl-pentanoic acid]",,,,< 100,< 50,< 100,
"CC(C)CC(N[C@@H](Cc1c[nH]cn1)C(=O)O)C(=O)O (single isomer, unassigned) [BL, 2-[1-Carboxy-2-(1H-imidazol-4-yl)-ethylamino]4-methyl-pentanoic acid]",> 500,10000 to 50000,> 50000,,,,
"CC(C)CC(N[C@@H](Cc1cncn1Cc1ccc2c(c1)OCO2)C(=O)O)C(=O)O (single isomer, unassigned) [JE]",,,,< 100,< 50,< 100,
"CC(C)CC(N[C@@H](Cc1cncn1Cc1ccc(F)cc1)C(=O)O)C(=O)O (single isomer, unassigned) [II, 2-[1-Carboxy-2-[3-(4-fluoro-benzyl)-3H-imidazol-4-yl]-ethylamino]4-methyl-pentanoic acid]",,,,< 100,50 to 100,< 100,
"CC(C)CC(N[C@@H](Cc1cncn1Cc1ccc(C(=O)O)cc1)C(=O)O)C(=O)O (single isomer, unassigned) [GO, 4-[5-[2-Carboxy-2-(1-carboxy-3-methyl-butylamino)-ethyl]-imidazol-1-ylmethyl]-benzoic acid]",,> 50000,> 50000,,,,> 500
"CC(C)CC(N[C@@H](Cc1cncn1CCC1CCCCC1)C(=O)O)C(=O)O (single isomer, unassigned) [JI, 2-[1-Carboxy-2-[3-(2-cyclohexyl-ethyl)-3H-imidazol-4-yl]-ethylamino]4-methyl-pentanoic acid]",,,,< 100,< 50,< 100,
"CC(C)CC(N[C@@H](Cc1cncn1Cc1cccc(Cl)c1Cl)C(=O)O)C(=O)O (single isomer, unassigned) [IX, 2-[1-Carboxy-2-[3-(2,3-dichloro-benzyl)-3H-imidazol-4-yl]-ethylamino]4-methyl-pentanoic acid]",,,,> 500,< 50,< 100,
"CC(N[C@@H](Cc1c[nH]cn1)C(=O)O)C(=O)O (stereo partly shown) [N, 2-(1-Carboxy-ethylamino)-3-(1H-imidazol-4-yl)-propionic acid]",,> 50000,> 50000,,,,> 500
"O=C(O)C(Cc1ccccc1)N[C@@H](Cc1cnc[nH]1)C(=O)O (stereo partly shown) [EK, 2-(1-Carboxy-2-phenyl-ethylamino)-3-(3H-imidazol-4-yl)-propionicacid]",,10000 to 50000,10000 to 50000,,,,> 500

# Continued, values first:
Ki ([1]; 12 concentrations) [nM],Ki [2] [nM],Ki [3] [nM],"Ki [4, 5] [nM]","Ki [4, 6] [nM]",Ki ([1]; 12 compound concentrations) [nM],"Ki [4, 7] [nM]",SMILES
100 to 500,> 50000,> 50000,,,,,"COC(=O)[C@H](Cc1c[nH]cn1)NC(CC(C)C)C(=O)O (single isomer, unassigned) [CU, 2-[2-(1H-Imidazol-4-yl)-1-methoxycarbonyl-ethylamino]-4-methyl-pentanoic acid]"
,,,100 to 500,50 to 100,< 100,,"CC(C)CC(N[C@@H](Cc1csc(-c2ccccc2)n1)C(=O)O)C(=O)O (stereo partly shown) [IL, 2-[1-Carboxy-2-(2-phenyl-thiazol-4-yl)-ethylamino]-4-methyl-pentanoic acid]"
,,,< 100,,< 100,,"CC(C)CC(N[C@@H](Cc1cncn1CCc1ccccc1)C(=O)O)C(=O)O (single isomer, unassigned) [JK, 2-[1-Carboxy-2-[3-phenethyl-3H-imidazol-4-yl)-ethylamino]-4-methyl-pentanoic acid]"
> 500,> 50000,> 50000,,,,,"CCC(C)C(NC(Cc1cncn1Cc1ccccc1)C(=O)O)C(=O)O (single isomer, unassigned) [GD, 2-[2-(3-Benzyl-3H-imidazol-4-yl)-1-carboxy-ethylamino]-3-methyl-pentanoic acid]"
> 500,> 50000,> 50000,,,,,"CC(C)CC(N[C@@H](Cc1cncn1COCc1ccccc1)C(N)=O)C(=O)O (single isomer, unassigned) [FC, 2-[2-(3-Benzyloxymethyl-3H-imidazol-4-yl)-1-carbamoyl-ethylamino]-4-methyl-pentanoic acid]"
,,,100 to 500,,< 100,,"CC(C)C[C@H](N[C@@H](Cc1ccn(Cc2ccccc2)n1)C(=O)O)C(=O)O [IN, (S,S)-2-[2-(1-benzyl-1H-pyrazol-3-yl)-1-carboxy-ethylamino]-4-methyl pentanoic acid]"
,,,< 100,< 50,< 100,,"CC(C)CC(N[C@@H](Cc1cncn1Cc1cccc(C(F)(F)F)c1)C(=O)O)C(=O)O (single isomer, unassigned) [IZ, 2-[1-Carboxy-2-[3-(3-trifluoromethyl-benzyl)-3H-imidazol-4-yl]-ethylamino]4-methyl-pentanoic acid]"
,,,< 100,< 50,< 100,,"CC(C)CC(N[C@@H](Cc1cncn1Cc1cccc(F)c1)C(=O)O)C(=O)O (single isomer, unassigned) [JQ, 2-[1-Carboxy-2-[3-(3-fluoro-benzyl)-3H-imidazol-4-yl]-ethylamino]4-methyl-pentanoic acid]"
,,,< 100,< 50,< 100,,"CC(C)CC(N[C@@H](Cc1cncn1Cc1cccc(I)c1)C(=O)O)C(=O)O (single isomer, unassigned) [JO, 2-[1-Carboxy-2-[3-(3-iodobenzyl)-3H-imidazol-4-yl]-ethylamino]-4-methyl-pentanoic acid]"
,> 50000,> 50000,,,,> 500,"CC(C)CC(N[C@H](CC(=O)O)Cc1ccsc1)C(=O)O (stereo in doubt) [EJ, 2-(1-Carboxymethyl-2-thiophen-3-yl-ethylamino)-4-methyl-pentanoic acid]"
,> 50000,> 50000,,,,> 500,"CC(C)CC(N[C@@H](Cc1cncn1COCc1ccccc1)C(N)=O)C(=O)O (single isomer, unassigned) [FB, 2-[2-(3-Benzyloxymethyl-3H-imidazol-4-yl)-1-carbamoyl-ethylamino]-4-methyl-pentanoic acid]"
,> 50000,> 50000,,,,> 500,"CC(C)C[C@H](N[C@H](CCc1ccccc1)C(=O)O)C(=O)OC(C)(C)C [DA, 2-(1-Carboxy-3-phenyl-propylamino)-4-methyl-pentanoic acid tert-butyl ester]"
